Reference: ChEMBL document CHEMBL4665641, “Lead optimization and efficacy evaluation of quinazoline-based BET family inhibitors for potential treatment of cancer and inflammatory diseases” (Bioorg Med Chem Lett, 2019)
The source made the active and inactive calls. No cut-off for these calls is given here.

Experiments:
CYP1A2 = target: T1, CYP1A2 (Homo sapiens, UniProt P05177); assay: Inhibition of human CYP1A2 at 10 uM relative to control; type: ADME
T1 sequence (P05177 whole entry): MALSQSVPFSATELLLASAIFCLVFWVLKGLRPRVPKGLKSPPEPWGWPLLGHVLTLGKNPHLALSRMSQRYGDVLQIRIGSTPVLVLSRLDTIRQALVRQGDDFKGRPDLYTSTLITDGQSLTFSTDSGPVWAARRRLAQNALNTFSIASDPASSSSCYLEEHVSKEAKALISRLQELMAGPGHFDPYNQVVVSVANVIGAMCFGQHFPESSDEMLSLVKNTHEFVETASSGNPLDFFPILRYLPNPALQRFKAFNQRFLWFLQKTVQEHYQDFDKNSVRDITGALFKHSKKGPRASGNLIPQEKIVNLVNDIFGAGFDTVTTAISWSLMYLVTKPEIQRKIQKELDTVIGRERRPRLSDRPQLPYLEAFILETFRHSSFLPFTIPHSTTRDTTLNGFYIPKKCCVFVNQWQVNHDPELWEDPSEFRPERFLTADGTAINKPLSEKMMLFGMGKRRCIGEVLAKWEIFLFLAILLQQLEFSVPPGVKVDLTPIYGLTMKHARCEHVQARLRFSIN

Kasumi 1 [1] = assay: Antitumor activity against human Kasumi-1 cells xenografted in CB17 SCID mouse assessed as inhibition of tumor growth at 40 mg/kg, po QD for 25 days; type: functional; conditions: Kasumi 1, po, 600 h, time 25 day, read-out: TGI
Mus musculus [2] = assay: (§1) Antiinflammatory activity in collagen/complete freund's adjuvant-induced arthritis DBA/1 mouse model assessed as TNF-alpha level in rear right paw at 50 mg/kg, po administered via gavage starting from day 21 to day 41 post collagen/CFA challenge and measured on day 42 measured per mg protein (reference value: 0.88 pg); type: functional; conditions: time 21 day
Mus musculus [3] = assay: as §1, with “VEGF” for “TNF-alpha”, “0.98” for “0.88”; type: functional; conditions: time 21 day
[4] = target: Bromodomain-containing protein 3 (Homo sapiens, UniProt Q15059); assay: Binding affinity to human partial length BRD3 (BD1,2) (P24 to P416 residues) expressed in bacterial expression system by BROMOscan assay
[5] = target: T2, Bromodomain-containing protein 2 (Homo sapiens, UniProt P25440); assay: Binding affinity to human partial length BRD2 (BD1) (K71 to N194 residues) expressed in bacterial expression system by BROMOscan assay
Mus musculus [6] = assay: as §1, with “IP-10” for “TNF-alpha”, “6.23” for “0.88”; type: functional; conditions: time 21 day
[7] = target: T3, Bromodomain-containing protein 4 (Homo sapiens, UniProt O60885); assay: Competitive binding affinity to human partial length BRD4 (BD1,2) (N44 to E460 residues) expressed in bacterial expression system by BROMOscan assay
[8] = target: T3, Bromodomain-containing protein 4; assay: Binding affinity to human partial length BRD4 (BD1) (N44 to E168 residues) expressed in bacterial expression system by BROMOscan assay
[9] = target: Bromodomain testis-specific protein (Homo sapiens, UniProt Q58F21); assay: Binding affinity to human partial length BRDT (BD2) (K250 to E382 residues) expressed in bacterial expression system by BROMOscan assay
[10] = Cmax in CD-1 mouse at 2 mg/kg, iv measured after 5 mins; type: ADME, organism-based; design: route intravenous, dose 2 mg/kg; conditions: mouse, in vivo, 5 min
[11] = Stability in mouse liver microsomes assessed as half life; type: ADME, Microsome
[12] = Drug metabolism in rat assessed as oxidised metabolite formation by MetID study analysis; type: ADME
Mus musculus [13] = assay: Antiarthritic activity in collagen/complete freund's adjuvant-induced arthritis DBA/1 mouse model assessed as reduction in arthritis severity score at 50 mg/kg, po administered via gavage once daily starting from day 21 to day 41 post collagen/CFA challenge and measured on day 0, 18, 21 followed by three times weekly up to 42 days; type: functional, organism-based; conditions: time 21.0 day
[14] = Drug uptake in tumor tissue of CB17 SCID mouse xenografted with human Kasumi-1 cells at 10 mg/kg, po QD for 25 days and measured after 24 hrs post last dose; type: ADME, organism-based, Neoplasm; conditions: time 25 day, read-out: Drug uptake
[15] = Toxicity in CD1 mouse assessed as mortality at 50 to 100 mg/kg, po administered once daily for 5 days and observed for 5 days after last dose; type: organism-based; conditions: in vivo, 120 h, dose 50-100 mg/kg, time 5 day
[16] = AUC(0 to infinity) in CD-1 mouse at 10 mg/kg, po; type: ADME, organism-based; design: route oral, time infinity, dose 10 mg/kg; conditions: mouse, in vivo
Cytochrome P450 2C9 = Cytochrome P450 2C9 (Homo sapiens, UniProt P11712); assay: Inhibition of human CYP2C9 at […]; type: ADME; conditions: dose 2.1 µM
[17] = target: T3, Bromodomain-containing protein 4; assay: Binding affinity to human partial length BRD4 (BD2) (K333 to E460 residues) expressed in bacterial expression system by BROMOscan assay
[18] = Cmax in CD-1 mouse at 10 mg/kg, po; type: ADME, organism-based; design: route oral, dose 10 mg/kg; conditions: CD-1, mouse, in vivo, read-out: Cmax
Mus musculus [19] = assay: Antiarthritic activity in collagen/complete freund's adjuvant-induced arthritis DBA/1 mouse model assessed as reduction in inflammatory symptoms at 50 mg/kg, po administered via gavage once daily starting from day 21 to day 41 post collagen/CFA challenge and measured from day 13 to 42; type: functional, organism-based; conditions: time 21.0 day
[20] = target: T2, Bromodomain-containing protein 2; assay: Binding affinity to human partial length BRD2 (BD2) (E348 to D455 residues) expressed in bacterial expression system by BROMOscan assay
[21] = Apparent permeability across apical to basolateral side in human Caco2 cells; type: ADME, cell-based; conditions: caco-2
[22] = AUC(0 to infinity) in CD-1 mouse at 2 mg/kg, iv; type: ADME, organism-based; design: time infinity, route intravenous, dose 2 mg/kg; conditions: mouse, in vivo
Mus musculus [23] = assay: as §1, with “IL-6” for “TNF-alpha”, “180.7” for “0.88”; type: functional; conditions: time 21 day
Kasumi 1 [24] = assay: Antitumor activity against human Kasumi-1 cells xenografted in CB17 SCID mouse assessed as tumor volume at 40 mg/kg, po QD for 25 days (reference value: 2189 +/- 604 mm3); type: functional; conditions: time 25 day
Kasumi 1 [25] = assay: Antitumor activity against human Kasumi-1 cells xenografted in CB17 SCID mouse assessed as tumor weight at 10 mg/kg, po QD for 29 days (reference value: 2.1+/- 0.3 g); type: functional; conditions: time 29 day
[26] = Toxicity in CB17 SCID mouse xenografted with human Kasumi-1 cells assessed body weight loss at 10 to 40 mg/kg, po QD for 25 days; type: organism-based; conditions: in vivo, 600 h, dose 10-40 mg/kg, time 25 day
Mus musculus [27] = assay: Antiarthritic activity in collagen/complete freund's adjuvant-induced arthritis DBA/1 mouse model assessed as reduction in histological damage of hind paw at 50 mg/kg, po administered via gavage starting from day 21 to day 41 post collagen/CFA challenge and measured on day 42 by hematoxylin-eosin staining based assay; type: functional, organism-based; conditions: time 21.0 day
[28] = Toxicity in collagen/CFA induced arthritis DBA/1 mouse model assessed as body weight at 50 mg/kg, po administered via gavage starting from day 21 to day 41 post collagen/CFA challenge and measured on day 21 relative to initial weight (reference value: 94.96%); type: organism-based; conditions: in vivo, 504 h, time 21 day

T2 sequence (P25440 whole entry, the tested form may be a part): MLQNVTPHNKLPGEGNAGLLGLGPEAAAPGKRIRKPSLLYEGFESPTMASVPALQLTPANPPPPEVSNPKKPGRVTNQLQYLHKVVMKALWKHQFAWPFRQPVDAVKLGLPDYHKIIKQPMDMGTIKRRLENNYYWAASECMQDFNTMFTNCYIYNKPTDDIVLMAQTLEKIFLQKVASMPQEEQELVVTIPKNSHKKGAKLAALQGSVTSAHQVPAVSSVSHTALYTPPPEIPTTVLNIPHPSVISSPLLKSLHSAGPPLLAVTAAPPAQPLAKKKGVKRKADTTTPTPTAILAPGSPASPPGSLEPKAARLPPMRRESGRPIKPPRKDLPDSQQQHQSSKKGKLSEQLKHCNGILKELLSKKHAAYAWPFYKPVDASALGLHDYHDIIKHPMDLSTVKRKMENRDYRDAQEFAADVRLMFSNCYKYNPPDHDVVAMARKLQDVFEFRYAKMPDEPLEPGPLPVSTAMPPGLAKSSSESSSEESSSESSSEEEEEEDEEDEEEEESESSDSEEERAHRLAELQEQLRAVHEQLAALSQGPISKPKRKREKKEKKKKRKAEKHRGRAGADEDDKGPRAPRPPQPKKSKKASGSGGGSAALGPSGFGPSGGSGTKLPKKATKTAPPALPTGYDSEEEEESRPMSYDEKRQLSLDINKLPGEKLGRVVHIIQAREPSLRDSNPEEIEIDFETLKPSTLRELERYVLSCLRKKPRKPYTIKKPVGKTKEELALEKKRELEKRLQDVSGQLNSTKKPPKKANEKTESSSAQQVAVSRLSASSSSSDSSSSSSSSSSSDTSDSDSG
Bromodomain-containing protein 3, sequence (Q15059 whole entry, the tested form may be a part): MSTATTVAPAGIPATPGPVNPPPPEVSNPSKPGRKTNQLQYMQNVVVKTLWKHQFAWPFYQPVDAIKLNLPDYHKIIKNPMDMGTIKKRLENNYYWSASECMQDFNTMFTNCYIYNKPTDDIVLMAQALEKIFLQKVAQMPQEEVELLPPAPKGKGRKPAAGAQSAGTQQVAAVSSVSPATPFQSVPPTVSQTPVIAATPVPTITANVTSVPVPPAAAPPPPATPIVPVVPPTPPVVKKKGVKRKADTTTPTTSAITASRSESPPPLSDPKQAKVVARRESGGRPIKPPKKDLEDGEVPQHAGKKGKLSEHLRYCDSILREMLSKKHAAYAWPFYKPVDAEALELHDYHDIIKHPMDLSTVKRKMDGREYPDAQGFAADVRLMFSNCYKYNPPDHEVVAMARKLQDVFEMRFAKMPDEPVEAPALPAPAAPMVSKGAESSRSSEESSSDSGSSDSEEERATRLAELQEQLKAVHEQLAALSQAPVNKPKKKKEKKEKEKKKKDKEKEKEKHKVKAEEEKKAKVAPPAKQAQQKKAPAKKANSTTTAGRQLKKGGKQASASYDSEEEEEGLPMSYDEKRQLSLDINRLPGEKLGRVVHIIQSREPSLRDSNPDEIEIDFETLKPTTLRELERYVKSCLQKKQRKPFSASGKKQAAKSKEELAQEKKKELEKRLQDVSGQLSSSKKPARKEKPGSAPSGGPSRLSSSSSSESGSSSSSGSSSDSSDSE
Cytochrome P450 2C9, sequence (P11712 whole entry, the tested form may be a part): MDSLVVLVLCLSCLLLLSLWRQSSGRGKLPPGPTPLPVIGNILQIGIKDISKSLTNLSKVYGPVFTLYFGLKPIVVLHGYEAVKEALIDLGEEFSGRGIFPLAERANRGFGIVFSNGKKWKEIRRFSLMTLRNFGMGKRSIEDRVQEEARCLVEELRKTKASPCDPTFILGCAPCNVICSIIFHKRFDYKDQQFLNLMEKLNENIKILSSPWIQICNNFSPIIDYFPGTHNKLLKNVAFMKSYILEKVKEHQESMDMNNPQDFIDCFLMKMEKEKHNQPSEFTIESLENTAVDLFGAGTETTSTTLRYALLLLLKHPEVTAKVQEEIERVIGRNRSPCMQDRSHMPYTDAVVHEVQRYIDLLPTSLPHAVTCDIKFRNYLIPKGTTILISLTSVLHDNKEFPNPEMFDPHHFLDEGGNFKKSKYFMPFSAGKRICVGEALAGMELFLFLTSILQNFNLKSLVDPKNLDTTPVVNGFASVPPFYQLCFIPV

Cc1noc(C)c1-c1ccc2nc(-c3cnn(CC(C)(C)O)c3)nc(N3CCOC[C@@H]3c3ccccc3)c2c1
inhibition at 10 µM (CYP1A2): < 50%
inhibition in vivo at 40 mg/kg (Kasumi 1 [1]): 98.6%
Activity (Mus musculus [2]): 0.46 pg
Activity (Mus musculus [3]): 1.6 pg
Kd [4]: 29 nM
Kd [5]: 45 nM
Activity (Mus musculus [6]): 0.92 pg
Kd [7]: 70 nM
Kd [8]: 17 nM
Kd [9]: 160 nM
Cmax [10]: 2337 ng/mL
t1/2 [11]: 22 min
Drug metabolism [12]: Metabolite_Detected
Activity (Mus musculus [13]): Active
concentration at 600 h [14]: 56 ng/g
Activity [15]: Non-Toxic
AUC [16]: 18927 ng·h/mL
INH (Cytochrome P450 2C9): Active
Kd [17]: 81 nM
Cmax [18]: 2160 ng/mL
Activity (Mus musculus [19]): Active
Kd [20]: 200 nM
Papp [21]: 18.2 10^-6 cm/s
AUC [22]: 5025 ng·h/mL
Activity (Mus musculus [23]): 21.62 pg
Activity (Kasumi 1 [24]): 66 mm3
Activity (Kasumi 1 [25]): 1.22 g
Activity [26]: Non-Toxic
Activity (Mus musculus [27]): Active
Activity [28]: 101.92%
